The record followed here is patent US20250235465A1, “USE OF SODIUM TRANS-[TETRACHLORIDOBIS(1H-INDAZOLE)RUTHENATE(III)] TO AMELIORATE PROTEASOME INHIBITOR RESISTANCE” (Bold Therapeutics Inc., priority 2021, published 2025).

The subject of data set [1] is MM.1S BR (bortezomib resistant). An excerpt: (§1) Proteasome inhibitors (PI) and immunomodulatory drugs (IMiD) are used as standards of care treatments in MM disease in the clinic. […] Specifically, the MM.1S cell line was developed to acquire partial resistance to proteasome inhibitors bortezomib (MM.1S BR) and carfilzomib (MM.1S CR) by treating the MM.1S cell line with increasing doses of the drugs for about 6 months and the OPM2 cell line was developed to acquire partial resistance to IMiD lenalidomide (OPM2 LR) and pomalidomide (OPM2 PR) by treating the OPM2 cell line with increasing doses of the drugs for about 6 months.

Data set [2] has as its system MM.1S CR in presence of HS-5. The note with it: MM.1S CR in co-culture with HS-5, FIG. 5. The procedure: (§2) Bone marrow stromal cells are understood to provide a protective environment for cells, insulating bone marrow cells from drug effects. […] To do this, a co-culture assay was carried out, in which MM cells were grown in co-culture with a bone marrow stromal cell line HS-5. MM cell lines adhere to stromal cells in culture and the stromal cells can provide a protective effect against drug induced apoptosis/growth inhibition. Dose response curves were generated for the PI-sensitive cell line MM.1 S, and the two PI resistant lines MM.1S BR and MM.1S CR in presence of HS-5 by standard CTG assay.

The test system of data set [3] is MM.1S in presence of HS-5. The note with it: MM.1S in co-culture with HS-5, FIG. 5. As to the method: as §2
Data set [4] deals with MM.1S BR in presence of HS-5. The note with it: MM.1S BR in co-culture with HS-5, FIG. 5. As to the method: as §2
Data set [5] has as its system bone marrow cell line HS-5. Particulars: bone marrow stromal cell line HS-5, FIG. 5. As to the method:
as §2

Data set [6] deals with OPM2 LR (lenalidomide resistant). The note with it: 24 hours. The procedure: (§3) The luminescent readings obtained in the assay were used to measure the percentage of cell death following treatment with increasing doses of BOLD-100 for 24 hours. Each cell line was treated in triplicate and the average cell death was used to calculate the IC50 or […] inhibitory concentration dose in these cell lines using a nonlinear regression fit.
as §1

In data set [7] the test system is OPM2 PR (pomalidomide resistant). Particulars: read-out: BOLD-100 IC50, 24 hours, Example 2, FIG. 2B. The procedure:
as §3, §1

For a further data set, the system named is MM.1S. The procedure: as §3, §1
In the next data set the test system is OPM2. Particulars: OPM2, 24 hours. As to the method:
as §3, §1

A further data set concerns KMS27. The note with it: KMS27, 24 hours, Table 1. The procedure: as §3
A further data set has as its system JJN3. Particulars: JJN3, 24 hours, Table 1. As to the method: as §3
The test system of the next data set is H1112. Particulars: H1112, 24 hours, Table 1. The procedure: as §3
In the next data set the test system is MOLP8. The note with it: MOLP8, 24 hours, Table 1. As to the method:
as §3

The test system of another data set is XG-2. Particulars: XG-2, 24 hours, Table 1. As to the method:
as §3

A further data set deals with XG-1. Particulars: XG-1, 24 hours, Table 1. As to the method: as §3
Setting [8] is: read-out: BOLD-100 IC50, 24 hours, Example 2, FIG. 2A.

Where two headings read alike, the source gives them in different places.

As for `[Cl][Ru]([Cl])([Cl])[Cl].[Na+].c1ccc2[nH]ncc2c1.c1ccc2[nH]ncc2c1` [BOLD-100, Sodium trans-[tetrachloridobis(1H-indazole)ruthenate(III)]], the half-inhibitory concentration (IC50) was determined as 23 µM in [1] (setting [8]); 23 µM in data set [1] (read-out: BOLD-100 IC50, 24 hours, FIG. 2A legend); 108 µM in data set [6] (Table 1); 51 µM in data set [7]; 106 µM with MM.1S (24 hours, Table 1); 83 µM in the data set with MM.1S (setting [8]). Also, the IC50 in the data set with OPM2 (Table 1) was 130 µM; in the data set with OPM2 (read-out: BOLD-100 IC50, Example 2, FIG. 2B), 120 µM; in the data set on KMS27, 128 µM; in the data set with JJN3, “Not reached”; in the data set on H1112, 72 µM; in the data set on MOLP8, 115 µM. Moreover, the figures for the IC50 in the data set on XG-2 and in the data set on XG-1 were 54 µM and 49 µM, respectively. In addition, the impact on viability result in [2] is given as “negatively impact the viability”; in data set [3], “negatively impact the viability”; in data set [4], “negatively impact the viability”; in data set [5] it was “minimal impact”. For the same compound, the “sensitivity to BOLD-100 compared to parental OPM2” value in data set [6] (FIG. 2B) is given as “higher sensitivity”.

What is called IC50 is the point on the concentration scale where inhibition reaches its midpoint.
